{"source": "the supplement of paper PMC10307832", "assay_in_all_cases": "relative viability (nuclei count vs DMSO), 5 days (fraction); higher = more cells survive", "key": {"H3255": {"test_system": "H3255", "procedure,_shortened": "(§1)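 Cells from lung cancer lines were seeded into 1536-well plates and, one day later, dosed by pin tool. Treatments were either a single drug or a fixed dose of an anchor drug with five library-drug doses (not always all listed) in √10 steps. After 5 days, nuclei were stained in a one-step fixation (final 0.05% Triton X-100, 1% formaldehyde, 1 ug/ml Hoechst) and counted on 4× images, and relative viability is the treated-to-vehicle nuclei ratio, as the median of duplicate plates.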"}, "HCC-827": {"test_system": "HCC-827", "procedure,_shortened": "as §1"}, "NCI-H1915": {"test_system": "NCI-H1915", "procedure,_shortened": "as §1"}, "LC-2-ad": {"test_system": "LC-2-ad", "procedure,_shortened": "as §1"}, "NCI-H1792": {"test_system": "NCI-H1792", "procedure,_shortened": "as §1"}, "EMC-BAC-2": {"test_system": "EMC-BAC-2", "procedure,_shortened": "as §1"}, "HCC-15": {"test_system": "HCC-15", "procedure,_shortened": "as §1"}, "PC-14": {"test_system": "PC-14", "procedure,_shortened": "as §1"}, "EKVX": {"test_system": "EKVX", "procedure,_shortened": "as §1"}, "LCLC-97TM1": {"test_system": "LCLC-97TM1", "procedure,_shortened": "as §1"}, "NCI-H23": {"test_system": "NCI-H23", "procedure,_shortened": "as §1"}, "NCI-H1993": {"test_system": "NCI-H1993", "procedure,_shortened": "as §1"}, "NCI-H1944": {"test_system": "NCI-H1944", "procedure,_shortened": "as §1"}, "SK-LU-1": {"test_system": "SK-LU-1", "procedure,_shortened": "as §1"}, "NCI-H460": {"test_system": "NCI-H460", "procedure,_shortened": "as §1"}, "NCI-H1793": {"test_system": "NCI-H1793", "procedure,_shortened": "as §1"}, "NCI-H322M": {"test_system": "NCI-H322M", "procedure,_shortened": "as §1"}, "EPLC-272H": {"test_system": "EPLC-272H", "procedure,_shortened": "as §1"}, "NCI-H661": {"test_system": "NCI-H661", "procedure,_shortened": "as §1"}}}
{"smiles": "COCC1(CO)C(=O)C2CCN1CC2", "note": "(centres undefined) [PRIMA-1MET] + CS(=O)(=O)CCNCc1ccc(-c2ccc3ncnc(Nc4ccc(OCc5cccc(F)c5)c(Cl)c4)c3c2)o1 [Lapatinib] (partner 2 µM)", "values": [{"measurement": "relative viability", "setting": "H3255; first compound 0.2 µM", "result": 0.231}, {"measurement": "relative viability", "setting": "H3255; first compound 0.6325 µM", "result": 0.21}, {"measurement": "relative viability", "setting": "H3255; first compound 2 µM", "result": 0.225}, {"measurement": "relative viability", "setting": "H3255; first compound 6.325 µM", "result": 0.237}, {"measurement": "relative viability", "setting": "H3255; first compound 20 µM", "result": 0.195}, {"measurement": "relative viability", "setting": "HCC-827; first compound 0.2 µM", "result": 0.22}, {"measurement": "relative viability", "setting": "HCC-827; first compound 0.6325 µM", "result": 0.164}, {"measurement": "relative viability", "setting": "HCC-827; first compound 2 µM", "result": 0.198}, {"measurement": "relative viability", "setting": "HCC-827; first compound 6.325 µM", "result": 0.184}, {"measurement": "relative viability", "setting": "HCC-827; first compound 20 µM", "result": 0.198}, {"measurement": "relative viability", "setting": "NCI-H1915; first compound 0.2 µM", "result": 1.07}, {"measurement": "relative viability", "setting": "NCI-H1915; first compound 0.6325 µM", "result": 0.845}, {"measurement": "relative viability", "setting": "NCI-H1915; first compound 2 µM", "result": 0.864}, {"measurement": "relative viability", "setting": "NCI-H1915; first compound 6.325 µM", "result": 0.925}, {"measurement": "relative viability", "setting": "NCI-H1915; first compound 20 µM", "result": 0.958}, {"measurement": "relative viability", "setting": "LC-2-ad; first compound 0.2 µM", "result": 1.15}, {"measurement": "relative viability", "setting": "LC-2-ad; first compound 0.6325 µM", "result": 0.831}, {"measurement": "relative viability", "setting": "LC-2-ad; first compound 2 µM", "result": 0.769}, {"measurement": "relative viability", "setting": "LC-2-ad; first compound 6.325 µM", "result": 0.936}, {"measurement": "relative viability", "setting": "LC-2-ad; first compound 20 µM", "result": 0.963}, {"measurement": "relative viability", "setting": "NCI-H1792; first compound 0.2 µM", "result": 0.825}, {"measurement": "relative viability", "setting": "NCI-H1792; first compound 0.6325 µM", "result": 0.769}, {"measurement": "relative viability", "setting": "NCI-H1792; first compound 2 µM", "result": 0.868}, {"measurement": "relative viability", "setting": "NCI-H1792; first compound 6.325 µM", "result": 0.963}, {"measurement": "relative viability", "setting": "NCI-H1792; first compound 20 µM", "result": 0.807}, {"measurement": "relative viability", "setting": "EMC-BAC-2; first compound 0.2 µM", "result": 0.918}, {"measurement": "relative viability", "setting": "EMC-BAC-2; first compound 0.6325 µM", "result": 0.895}, {"measurement": "relative viability", "setting": "EMC-BAC-2; first compound 2 µM", "result": 0.766}, {"measurement": "relative viability", "setting": "EMC-BAC-2; first compound 6.325 µM", "result": 0.89}, {"measurement": "relative viability", "setting": "EMC-BAC-2; first compound 20 µM", "result": 0.897}, {"measurement": "relative viability", "setting": "HCC-15; first compound 0.2 µM", "result": 0.811}, {"measurement": "relative viability", "setting": "HCC-15; first compound 0.6325 µM", "result": 0.743}, {"measurement": "relative viability", "setting": "HCC-15; first compound 2 µM", "result": 0.777}, {"measurement": "relative viability", "setting": "HCC-15; first compound 6.325 µM", "result": 0.853}, {"measurement": "relative viability", "setting": "HCC-15; first compound 20 µM", "result": 0.623}, {"measurement": "relative viability", "setting": "PC-14; first compound 0.2 µM", "result": 0.396}, {"measurement": "relative viability", "setting": "PC-14; first compound 0.6325 µM", "result": 0.326}, {"measurement": "relative viability", "setting": "PC-14; first compound 2 µM", "result": 0.251}, {"measurement": "relative viability", "setting": "PC-14; first compound 6.325 µM", "result": 0.367}, {"measurement": "relative viability", "setting": "PC-14; first compound 20 µM", "result": 0.358}, {"measurement": "relative viability", "setting": "EKVX; first compound 0.2 µM", "result": 0.244}, {"measurement": "relative viability", "setting": "EKVX; first compound 0.6325 µM", "result": 0.202}, {"measurement": "relative viability", "setting": "EKVX; first compound 2 µM", "result": 0.174}, {"measurement": "relative viability", "setting": "EKVX; first compound 6.325 µM", "result": 0.213}, {"measurement": "relative viability", "setting": "EKVX; first compound 20 µM", "result": 0.201}, {"measurement": "relative viability", "setting": "LCLC-97TM1; first compound 0.2 µM", "result": 0.776}, {"measurement": "relative viability", "setting": "LCLC-97TM1; first compound 2 µM", "result": 0.998}, {"measurement": "relative viability", "setting": "LCLC-97TM1; first compound 6.325 µM", "result": 1.08}, {"measurement": "relative viability", "setting": "LCLC-97TM1; first compound 20 µM", "result": 0.148}, {"measurement": "relative viability", "setting": "NCI-H23; first compound 0.2 µM", "result": 1.29}, {"measurement": "relative viability", "setting": "NCI-H23; first compound 0.6325 µM", "result": 0.951}, {"measurement": "relative viability", "setting": "NCI-H23; first compound 2 µM", "result": 0.897}, {"measurement": "relative viability", "setting": "NCI-H23; first compound 6.325 µM", "result": 0.961}, {"measurement": "relative viability", "setting": "NCI-H23; first compound 20 µM", "result": 0.117}, {"measurement": "relative viability", "setting": "NCI-H1993; first compound 0.2 µM", "result": 0.776}, {"measurement": "relative viability", "setting": "NCI-H1993; first compound 0.6325 µM", "result": 0.776}, {"measurement": "relative viability", "setting": "NCI-H1993; first compound 2 µM", "result": 0.731}, {"measurement": "relative viability", "setting": "NCI-H1993; first compound 6.325 µM", "result": 0.771}, {"measurement": "relative viability", "setting": "NCI-H1993; first compound 20 µM", "result": 0.759}, {"measurement": "relative viability", "setting": "NCI-H1944; first compound 0.2 µM", "result": 0.971}, {"measurement": "relative viability", "setting": "NCI-H1944; first compound 0.6325 µM", "result": 0.6}, {"measurement": "relative viability", "setting": "NCI-H1944; first compound 6.325 µM", "result": 0.836}, {"measurement": "relative viability", "setting": "NCI-H1944; first compound 20 µM", "result": 0.823}, {"measurement": "relative viability", "setting": "SK-LU-1; first compound 0.2 µM", "result": 1.12}, {"measurement": "relative viability", "setting": "SK-LU-1; first compound 0.6325 µM", "result": 0.667}, {"measurement": "relative viability", "setting": "SK-LU-1; first compound 2 µM", "result": 0.61}, {"measurement": "relative viability", "setting": "SK-LU-1; first compound 6.325 µM", "result": 0.784}, {"measurement": "relative viability", "setting": "SK-LU-1; first compound 20 µM", "result": 0.235}, {"measurement": "relative viability", "setting": "NCI-H460; first compound 0.2 µM", "result": 0.993}, {"measurement": "relative viability", "setting": "NCI-H460; first compound 0.6325 µM", "result": 0.826}, {"measurement": "relative viability", "setting": "NCI-H460; first compound 2 µM", "result": 0.893}, {"measurement": "relative viability", "setting": "NCI-H460; first compound 6.325 µM", "result": 0.607}, {"measurement": "relative viability", "setting": "NCI-H460; first compound 20 µM", "result": 0.0047}, {"measurement": "relative viability", "setting": "NCI-H1793; first compound 0.2 µM", "result": 0.707}, {"measurement": "relative viability", "setting": "NCI-H1793; first compound 0.6325 µM", "result": 0.68}, {"measurement": "relative viability", "setting": "NCI-H1793; first compound 6.325 µM", "result": 0.592}, {"measurement": "relative viability", "setting": "NCI-H1793; first compound 20 µM", "result": 0.646}, {"measurement": "relative viability", "setting": "NCI-H322M; first compound 0.2 µM", "result": 0.634}, {"measurement": "relative viability", "setting": "NCI-H322M; first compound 6.325 µM", "result": 0.629}, {"measurement": "relative viability", "setting": "NCI-H322M; first compound 20 µM", "result": 0.61}, {"measurement": "relative viability", "setting": "EPLC-272H; first compound 0.2 µM", "result": 0.871}, {"measurement": "relative viability", "setting": "EPLC-272H; first compound 0.6325 µM", "result": 0.767}, {"measurement": "relative viability", "setting": "EPLC-272H; first compound 2 µM", "result": 0.905}, {"measurement": "relative viability", "setting": "EPLC-272H; first compound 6.325 µM", "result": 0.971}, {"measurement": "relative viability", "setting": "EPLC-272H; first compound 20 µM", "result": 0.333}, {"measurement": "relative viability", "setting": "NCI-H661; first compound 0.2 µM", "result": 0.531}, {"measurement": "relative viability", "setting": "NCI-H661; first compound 0.6325 µM", "result": 0.467}, {"measurement": "relative viability", "setting": "NCI-H661; first compound 6.325 µM", "result": 0.493}, {"measurement": "relative viability", "setting": "NCI-H661; first compound 20 µM", "result": 0.266}]}
